In US9943522B2, “Use of cathepsin K inhibition for the treatment and/or prophylaxis of pulmonary hypertension and/or heart failure” (BAYER INTELLECTUAL PROPERTY GMBH, priority 2011, dated 2018):

Assays:
CTSK = test: Relative expression of CTSK in heart right ventricle, hypoxia-induced pulmonary hypertension model (TaqMan RT-PCR); format: in vivo, guinea pig; conditions: hypoxia 28 days, Odanacatib infusion, compared to placebo group; FIG. 4
Protocol: (§1) To analyse the disease state of the animals and determine the efficacy of Odanacatib treatment, the expression of marker genes were performed. […] Due to the known correlation of increased ANP levels and disease stage in heart failure patients and animal models, the increased expression of […] seems to be correlated with pulmonary hypertension.
(§2) Guinea pig or dog tissues were pulverized by grinding with liquid nitrogen. Total RNA was extracted, DNase I digestion was performed to remove residual genomic DNA and the RNA were reverse transcribed using random hexomer primers. Quantitative TaqMan RT-PCR analysis was performed using the Applied Biosystems PRISM 7900 sequence detection system. […] Results were normalized to L32 (dog) or b-actin (guinea pig) controls, and relative expression was calculated according to the following formula: relative expression=2(20-(CT(probe)-CT(L32/b-actin))). […]
(§3) Male Dunkin Hartley guinea pigs weighing approximately 250 g were randomized to three different treatment groups (n=7-8 animals/group; control+placebo, hypoxia+placebo, hypoxia+Odanacatib). […] The heart was dissected, and the ratio of the right ventricle to left ventricle plus septum weight (RV/LV+S) was calculated as an index of right ventricular hypertrophy. The right ventricle was snap-frozen on dry ice for RNA extraction and quantitative real-time polymerase chain reaction. […]

ANP = test: Relative expression of ANP in heart right ventricle, hypoxia-induced pulmonary hypertension model (TaqMan RT-PCR); format: in vivo, guinea pig; conditions: hypoxia 28 days, Odanacatib infusion, compared to placebo group; FIG. 2
Protocol: as §1, §2, §3

[1] = tested on: hypoxia-induced pulmonary hypertension in the guinea pig; test: Hypoxia-induced pulmonary hypertension in the guinea pig: right ventricular hypertrophy (RV/LV+S); format: in vivo
From the text: Chronic hypoxia is a literature described and accepted animal model for pulmonary hypertension and is described for different species (Am J Physiol Lung Cell Mol Physiol 297: L1013-L1032, 2009; J Pharmacol Sci 107, 8-14 (2008); Pharmacology & Therapeutics 92 (2001) 1-20). Acute hypoxia increases pulmonary arterial pressure through pulmonary arterial constriction. Chronic hypoxia causes more severe pulmonary hypertension through vascular architectural changes and an increase of hematocrit (Hct) in the blood. […]
The CTSK inhibitor Odanacatib was tested in a guinea pig model for pulmonary hypertension as described in the examples section. […] The heart was dissected, and the ratio of the right ventricle to left ventricle plus septum weight (RV/LV+S) was calculated as an index of right ventricular hypertrophy. The right ventricle was snap-frozen on dry ice for RNA extraction and quantitative real-time polymerase chain reaction. […]
as §3, with “hypertrophy.” for “hypertrophy. The right ventricle was snap-frozen on dry ice for RNA extraction and quantitative real-time polymerase chain reaction.”

LTBP2 = test: Relative expression of LTBP2 in heart right ventricle, hypoxia-induced pulmonary hypertension model (TaqMan RT-PCR); format: in vivo, guinea pig; conditions: hypoxia 28 days, Odanacatib infusion, compared to placebo group; FIG. 3
Protocol: as §1, §2
For relative quantitation of the mRNA distribution of LTBP2, total RNA from each sample was first reverse transcribed. […]
For relative quantitation of the distribution of LTBP2 mRNA the Applied Bioscience ABI 7900HT Sequence Detection system was used according to the manufacturer's specifications and protocols.
PCR reactions were set up to quantitate LTBP2 and the housekeeping gene b-actin. […]

## CC(C)(F)C[C@H](N[C@@H](c1ccc(-c2ccc(S(C)(=O)=O)cc2)cc1)C(F)(F)F)C(=O)NC1(C#N)CC1 [Odanacatib]
CTSK
  expression of CTSK in heart (right ventricle) under hypoxia: markedly decreased expression
ANP
  expression of ANP in heart (right ventricle) under hypoxia: markedly decreased expression
[1]; Mean±SEM, normobaric hypoxia (10% O2) 28 days, continuous infusion by osmotic minipump day 0-28, hypoxic placebo 0.37±0.01, normoxic control 0.28±0.01
  ratio of the right ventricle to left ventricle plus septum weight (RV/LV+S): 0.30±0.01
[1]; hypoxia-induced pulmonary hypertension animals, compared to placebo treated animals
  right ventricle weight: reduction of right ventricle weight
LTBP2
  expression of LTBP2 in heart (right ventricle) under hypoxia: markedly decreased expression
